Laboratory results reported in PMC4876444, “Two-Photon Enzymatic Probes Visualizing Sub-cellular/Deep-brain Caspase Activities in Neurodegenerative Models” (Scientific Reports, 2016).
Where a SMILES comes first, the peptide text is derived from it. The star is where a group is joined. NH(6-Ac-2-naphthyl) = CC(=O)c1ccc2cc(N*)ccc2c1; Cbz = O=C(OCc1ccccc1)*; CH2F = FC*

Columns and labels:
[1] = system: NIH/3T3, BV2 and HeLa cells; test: XTT cytotoxicity assay; assay type: cell-based, mouse, human; details: XTT assay, 12, 30, 60, 120 μM, 24 h
Protocol: Supplementary Figure 4. Cytotoxicity of two-photon enzymatic probes (12, 30, 60, 120 μM) in mammalian cells (NIH/3T3, BV2 and HeLa) after incubation for 24 h, as determined by XTT assay. […]
Detection of caspase activities in mammalian cells and tissues
Cell culture. The mouse embryonic fibroblast cell line (NIH/3T3), mouse microglial cell line (BV2) and human epithelial carcinoma cell line (HeLa) used in our experiments were cultured in Dulbecco’s Modified Eagle's Medium (DMEM) supplemented with 10% (for NIH/3T3 and HeLa) or 5% (for BV2) fetal bovine serum (FBS), 100.0 mg/L streptomycin and 100 IU/mL penicillin in a humidified atmosphere of 5% CO2 at 37 °C.
XTT assay. The cytotoxicity of our probes was determined by using the XTT colorimetric cell proliferation kit (Roche) following manufacturer’s guidelines. Briefly, NIH/3T3, BV2 and HeLa cells were seeded in 20~30% confluency (since they will reach >50% confluency within 24 h) into 96-well plates and incubated overnight before the addition of probes with concentrations of 12 μM, 30 μM, 60 μM and 120 μM, respectively. Probes were applied from DMSO stocks whereby DMSO never exceeded 1% in the final solution. The same volume of DMSO was used as a negative control; and the same volume of STS (200 nM) was used as a positive control. After a total treatment time of 24 h, proliferation was assayed using the XTT assay (Supplementary Fig. 4). […]

[2] = not given; remark: listed apart in the source
[3] = not given; remark: listed apart in the source
[4] = system: caspases (-1, -3, -6, -8 and -9); test: In vitro selectivity against a panel of recombinant caspases; assay type: biochemical, Human; details: probe 6 μM, uniform conditions with caspases -1, -3, -6, -8, -9, 2-h incubation at room temperature, tetrapeptide-AMC as references
Protocol: Figure 2 Photophysical and enzymatic properties of caspase probes. (a) Photophysical and kinetic properties of probes and free dyes. All measurements were taken in 50 mM HEPES, 50 mM NaCl, 0.1% CHAPS, 10 mM EDTA, 5% glycerol, 10 mM DTT, at pH = 7.2. (b) Time-dependent ratiometric fluorescence changes of C1RB (6 μM) incubated with caspase-1 (10 nM) over 2 h at room temperature. Data were obtained by plotting the normalized ratio of fluorescence intensity at 500 nm (F500 nm) over that at 450 nm (F450 nm). (Inset) time-dependent fluorescence emission spectra with λex = 350 nm. (c) Time-dependent “Turn-ON” effect of C1FS (6 μM) incubated with caspase-1 (10 nM) measured and normalized at 460 nm (F460 nm) over 2 h at room temperature, with the corresponding fluorescence emission spectra (inset). λex = 350 nm. […] S and N represent the fluorescence emission intensity of each reaction solution in the presence (S) and absence (N) of caspase-1. […] Normalized, relative fluorescence (RFU) values were obtained after 2-h incubation at room temperature. […]
Enzyme kinetics. […] Detailed kinetic properties of these probes were measured with target recombinant caspases using commercial tetrapeptide-AMC fluorogenic substrates as references at 25 °C in 384-well plates (Greiner Bio-One #781900). […]
shaking at 150 rpm for 24 h at 25 °C, a small portion of the reaction was analyzed by LC-MS (IT-TOF). […]

[5] = system: caspase-3-like activities in STS-induced BV2 and HeLa cells; test: TPFM live-cell imaging of STS-induced apoptotic cells; assay type: cell-based, mouse, human
Protocol: Figure 3 Bioimaging of active caspases in live cells. TPFM (λex = 760 nm; λem = 480-550 nm for all AAN-probes) of STS-induced (a) BV2 cells (2 μM, 4 h) and (b) HeLa cells (1 μM, 4 h) using C3RA/C8RA (24 μM, 1 h). Panels 3/6: cells pretreated with Z-VAD(OMe)-FMK (50 μM, 1 h) before STS addition. Panels 1/4: normal cells (DMSO). (c) WB analysis of cleaved caspase-3/-8 from (a,b). (d) TPFM of normal/apoptotic Hela cells imaged by C3RA (24 μM, up) or Ac-DEVD-AMC (40 μM, down; λem = 420–500 nm). Panels 1/3: normal cells. Panels 2/4: STS-induced cells (1 μM, 4 h). Bottom inset: bright field. Top inset: one-photon images (λex = 405 nm). (e) Real-time imaging of caspase-3/-8-like activities in live BV2 cells using 24 μM of C3RA (top)/C8RA (bottom) upon STS (2 μM) stimulation over 2 h. (f) Graphical quantification of RFU extracted from (e). (g) WB analysis of time-dependent caspase-3/-8 cleavage from STS-induced (2 μM) BV2 lysates. (h) WB analysis of time-dependent caspase-3/-7/-8 activation by detection of cleaved caspase-3/-7/-8 from lysates of HeLa cells stimulated with STS (2 μM). (i) RFU from real-time imaging of caspase-3-like activity in live HeLa cells with C3RA/C3RM/C3RE (24 μM, added 1 h before STS) upon STS (2 μM) stimulation. (j) Representative images (t = 60 min) from (i). (k) IF of STS-stimulated (2 μM, 2 h) HeLa cells by anti-caspase-3 (p17) antibody (red) with 3D projections of z-stack images at 90° view and merged with MitoTracker (green, left) or ER tracker (cyan, right). (l) TPFM of caspase-1 activation in primary cortical neurons upon glucose deprivation (GD, 8 h) followed by 1-h incubation with C1RB (24 μM) or C1FS (12 μM; λem = 450–550 nm). Inset: bright field images. NC: neuron cells incubated in normal neurobasal medium. Scale bar = 10 μm in all images.
NIH/3T3, HeLa and BV2 cell lines used in our experiments were cultured in DMEM medium supplemented with 10% (for NIH/3T3 and HeLa) or 5% (for BV2) fetal bovine serum (FBS), with 100.0 mg/L streptomycin and 100 IU/mL penicillin. […]

| Compound | cytotoxicity [1] | λem (emission maximum) [nm] | λex (absorption/excitation maximum) [2] [nm] | δΦ (two-photon action cross-section) [3] [GM] | probe selectivity profile towards intended caspase [4] | fluorescence properties for imaging caspase-3-like activities under two-photon settings, compared to C3RA ([5]; live HeLa cells, STS 1 μM 4 h, 40 μM, λex 760 nm) | effect of inhibitor on C3RA fluorescence in STS-induced cells ([5]; inhibitor 50 μM, 1 h before STS, BV2 and HeLa cells, C3RA 24 μM) |
| --- | --- | --- | --- | --- | --- | --- | --- |
| CC(=O)c1ccc2cc(NC(=O)[C@H](CC(=O)O)NC(=O)[C@@H](NC(=O)[C@H](CCC(=O)O)NC(=O)[C@H](CC(=O)O)NC(=O)CCC[P+](c3ccccc3)(c3ccccc3)c3ccccc3)C(C)C)ccc2c1 [C3RM, TPP-DEVD-AAN] | minimally cytotoxic | 448 | 317 | 1.4 |  |  |  |
| CC(=O)N[C@@H](Cc1ccc(O)cc1)C(=O)N[C@H](C(=O)N[C@@H](C)C(=O)N[C@@H](CC(=O)O)C(=O)Nc1ccc2cc(C(C)=O)ccc2c1)C(C)C |  | 448 | 316 | 6.9 |  |  |  |
| CC[C@H](C)[C@H](NC(=O)[C@H](CCC(=O)O)NC(=O)[C@@H](NC(C)=O)C(C)C)C(=O)N[C@@H](CC(=O)O)C(=O)Nc1ccc2cc(C(C)=O)ccc2c1 [C6RA, Ac-VEID-AAN] (Ac-VEID-{NH(6-Ac-2-naphthyl)}) |  | 448 | 316 | 1.8 | comparatively poor selectivity profiles |  |  |
| CC(=O)N[C@@H](CC(=O)O)C(=O)N[C@@H](CCC(=O)O)C(=O)N[C@H](C(=O)N[C@@H](CC(=O)O)C(=O)Nc1ccc2c(C)cc(=O)oc2c1)C(C)C [Ac-DEVD-AMC] |  |  |  |  |  | significantly poorer fluorescence properties |  |
| CC[C@H](C)[C@H](NC(C)=O)C(=O)N[C@@H](CCC(=O)O)C(=O)N[C@H](C(=O)N[C@@H](CC(=O)O)C(=O)Nc1ccc2cc(C(C)=O)ccc2c1)[C@@H](C)O [C8RA, Ac-IETD-AAN] (Ac-IETD-{NH(6-Ac-2-naphthyl)}) | minimally cytotoxic | 448 | 316 | 2.4 |  |  |  |
| CC(=O)N[C@@H](CC(C)C)C(=O)N[C@@H](CCC(=O)O)C(=O)N[C@@H](Cc1c[nH]cn1)C(=O)N[C@@H](CC(=O)O)C(=O)Nc1ccc2cc(C(C)=O)ccc2c1 [C9RA, Ac-LEHD-AAN] (Ac-LEHD-{NH(6-Ac-2-naphthyl)}) |  | 448 | 316 | 3.2 | comparatively poor selectivity profiles |  |  |
| Cbz-Val-Ala-Asp(OMe)-CH2F |  |  |  |  |  |  | inhibited |
